In paper PMC7570888 (Molecules, 2020):
Marks after values point to notes of the source that are not given here.

Key:
MT1 = details: cited from earlier work
MT2 = details: cited from earlier work
human MT1 receptor [1] = target: T1, human MT1 receptor (Homo sapiens, UniProt P48039); assay: 2-[125I]iodomelatonin competition binding, human MT1 in NIH3T3 cell membranes; details: 2-[125I]iodomelatonin 100 pM, 90 min 37 °C; Cheng-Prusoff; mean of at least three determinations in duplicate; read-out: hMT1 pKi (±SD) (converted)
T1 construct: expressed in transfected cells; host or cells: NIH3T3 fibroblast cells, stably transfected; membranes used
T1 sequence (P48039 whole entry): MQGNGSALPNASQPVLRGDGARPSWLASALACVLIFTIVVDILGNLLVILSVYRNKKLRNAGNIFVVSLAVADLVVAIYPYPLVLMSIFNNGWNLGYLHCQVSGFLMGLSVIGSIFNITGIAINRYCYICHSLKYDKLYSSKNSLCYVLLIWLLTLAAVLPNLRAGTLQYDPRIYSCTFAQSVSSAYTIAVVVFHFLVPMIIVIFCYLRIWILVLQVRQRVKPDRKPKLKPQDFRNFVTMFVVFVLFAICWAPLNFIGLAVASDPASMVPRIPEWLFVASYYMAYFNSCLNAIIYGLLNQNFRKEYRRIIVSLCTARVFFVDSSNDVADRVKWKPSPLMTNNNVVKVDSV
Procedure: (§1) The newly synthesized alpha- and beta-methyl N-anilinoethylamides were evaluated for their binding affinity at human MT1 and MT2 receptors stably transfected in NIH3T3 cells using 2-[^125I]iodomelatonin as radiolabelled ligand.
(§2) Binding affinities were determined using 2- [^125I]iodomelatonin as the labeled ligand in competition experiments on cloned human MT1 and MT2 receptors expressed in NIH3T3 […] fibroblast cells. The characterization of NIH3T3-MT1 and -MT2 cells had been already described in detail. Membranes were incubated for 90 min at 37 °C in binding buffer (Tris-HCl, 50 mM, pH 7.4). The final membrane concentration was 5−10 μg of protein per tube. The membrane protein level was determined in accordance with a previously reported method. […] The pKi values were calculated from the IC50 values in accordance with the Cheng−Prusoff equation [21]. The pKi values are the mean of at least three independent determinations performed in duplicate.

human MT2 receptor [2] = target: T2, human MT2 receptor (Homo sapiens, UniProt P49286); assay: 2-[125I]iodomelatonin competition binding, human MT2 in NIH3T3 cell membranes; details: 2-[125I]iodomelatonin 100 pM, 90 min 37 °C; Cheng-Prusoff; mean of at least three determinations in duplicate; read-out: hMT2 pKi (±SD) (converted)
T2 construct: expressed in transfected cells; host or cells: NIH3T3 fibroblast cells, stably transfected; membranes used
T2 sequence (P49286 1-362): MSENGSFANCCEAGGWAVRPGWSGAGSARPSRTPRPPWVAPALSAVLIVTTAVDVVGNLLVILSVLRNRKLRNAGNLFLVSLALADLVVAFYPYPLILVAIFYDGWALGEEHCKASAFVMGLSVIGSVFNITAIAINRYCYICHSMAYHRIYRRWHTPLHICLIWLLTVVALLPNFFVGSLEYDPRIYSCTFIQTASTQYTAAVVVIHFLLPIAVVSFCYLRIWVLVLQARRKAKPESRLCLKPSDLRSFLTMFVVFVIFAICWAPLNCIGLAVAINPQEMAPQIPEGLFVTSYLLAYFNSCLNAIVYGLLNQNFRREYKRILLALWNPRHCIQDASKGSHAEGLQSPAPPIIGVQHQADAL
Procedure: as §1, §2

human MT1 receptor [3] = target: T1, human MT1 receptor; details: relative to melatonin; cited from earlier work
human MT2 receptor [4] = target: T2, human MT2 receptor; details: relative to melatonin; cited from earlier work

COc1cccc(O[C@@H](C)CNC(C)=O)c1 [compound 2, (S)-N-[2-(3-methoxyphenoxy)propyl]acetamide]
pKi(MT1) (MT1): 8.77
pKi(MT2) (MT2): 8.33

COc1cc2c([C@@H](C)CNC(C)=O)c[nH]c2cc1Cl [TIK-301, (R)-β-methyl-6-chloro-melatonin]
Ki (MT1): 0.081 nM
Ki (MT2): 0.042 nM

CCC(=O)NC[C@H](CO)c1cccc2ccc(OC)cc12 [compound 1, (R)-N-[3-hydroxy-2-(7-methoxynaphthalen-1-yl)propyl]propanamide]
pKi(MT1) (MT1): 8.47
pKi(MT2) (MT2): 9.50

COc1cccc(N(C)CCNC(C)=O)c1 [compound 3, N-{2-[(3-methoxyphenyl)methylamino]ethyl}acetamide]
Ki (human MT1 receptor [1]): 1.74 nM
Ki (human MT2 receptor [2]): 2.24 nM
hMT1 IA, relative intrinsic activity (human MT1 receptor [3]): 0.95 ^c
hMT2 IA, relative intrinsic activity (human MT2 receptor [4]): 1.06 ^c
